assay: Antagonist activity at human CCR3 receptor assessed as inhibition of chemotaxis in eosinophil

| IC50 [nM] | Structure (SMILES) |
| --- | --- |
| 22 | C[C@@H](NC(=O)Nc1cccc(-c2nnnn2C)c1)[C@@H](O)CN(C)[C@@H](C)[C@@H](O)c1ccccc1 [1-((2R,3S)-3-hydroxy-4-(((1S,2S)-1-hydroxy-1-phenylpropan-2-yl)(methyl)amino)butan-2-yl)-3-(3-(1-methyl-1H-tetrazol-5-yl)phenyl)urea] |
| 2.6 | CCc1cc(NC(=O)N[C@H](C)[C@@H](O)CN(C)CCCc2ccc(F)cc2)cc(-c2nnnn2C)c1 [1-(3-ethyl-5-(1-methyl-1H-tetrazol-5-yl)phenyl)-3-((2R,3S)-4-((3-(4-fluorophenyl)propyl)(methyl)amino)-3-hydroxybutan-2-yl)urea] |
| 0.005 | CCc1cc(NC(=O)N[C@H](C)[C@@H](O)CN(CCCc2ccc(F)cc2)CC2CC2)cc(-c2nnnn2C)c1 [1-((2R,3S)-4-((cyclopropylmethyl)(3-(4-fluorophenyl)propyl)amino)-3-hydroxybutan-2-yl)-3-(3-ethyl-5-(1-methyl-1H-tetrazol-5-yl)phenyl)urea] |
| 0.038 | C[C@@H](NC(=O)Nc1cccc(-c2nnnn2C)c1)[C@@H](O)CN1CCC[C@@H](Cc2ccc(F)cc2)C1 [1-{(1R,2S)-3-[(S)-3-(4-Fluoro-benzyl)-piperidin-1-yl]-2-hydroxy-1-methyl-propyl}-3-[3-(1-methyl-1H-tetrazol-5-yl)-phenyl]-urea] |
| 0.004 | CCc1cc(NC(=O)N[C@H](C)[C@@H](O)CN(CC)CCCc2ccc(F)cc2)cc(-c2nnnn2C)c1 [1-((2R,3S)-4-(ethyl(3-(4-fluorophenyl)propyl)amino)-3-hydroxybutan-2-yl)-3-(3-ethyl-5-(1-methyl-1H-tetrazol-5-yl)phenyl)urea] |

Reference: BindingDB's records for doi:10.1016/j.bmcl.2007.11.087 (Bristol-Myers Squibb, 2008)
